Values joined by “and” are separate entries in the source; they are usually repeats but may differ in a detail not shown here. Equal entries are not always repeated.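 Values below derive from 48-hour exposures of cells grown in 96-well plates, with endpoints linearly interpolated between the two concentrations bracketing the appropriate inhibition level. GI50 is the concentration that inhibits growth by half. TGI is the concentration that stops growth completely.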

Our source for the GI50 and TGI values is PubChem BioAssay (NCI).

Common to all, as to test: NCI-60 cell line screen, 48 h
The subject of assay [1] is ACHN renal.
For assay [2], the system named is HCC-2998 colon.
For assay [3], the system named is NCI-H226 lung.
The subject of assay [4] is NCI-H23 lung.
In assay [5] the test system is RXF 393 renal.
Assay [6] deals with SK-MEL-5 melanoma.
Assay [7] concerns SN12C renal.
The test system of assay [8] is UACC-62 melanoma.
The test system of assay [9] is UO-31 renal.
Assay [10] concerns NCI-H522 lung.

As for `CCN(CC)CCNc1n[n+]([O-])c2cc([N+](=O)[O-])ccc2[n+]1[O-]`, the GI50 is 0.401 µM and 0.212 µM and 0.187 µM in [1]; 0.206 µM and 0.287 µM and 0.12 µM in assay [2]; 0.117 µM and 0.275 µM and 0.146 µM in [4]; 0.675 µM and 0.249 µM and 0.255 µM in assay [7]; 0.532 µM and 0.309 µM and 0.244 µM in assay [8]. The TGI in assay [1] is 3.93 µM and 2.06 µM and 1.92 µM; in assay [2], 1.53 µM and 2.01 µM and 0.57 µM; in assay [3], 8.82 µM and 7.74 µM and 7.8 µM; in [4] it was 1.55 µM and 1.58 µM and 1.94 µM; in assay [5], 5.14 µM and 4.28 µM and 3.03 µM; in assay [6], 2.01 µM and 1.56 µM and 1.7 µM. Moreover, the TGI in [7] was 2.97 µM and 2.33 µM and 2.58 µM; in assay [8], 2.11 µM and 1.56 µM and 1.5 µM; in assay [9], 15.3 µM and 10.8 µM and 10.9 µM.

For `CCOC(=O)c1cc(C(=O)c2ccc(OC)c(OC)c2)n2c1ccc1ccc3cccnc3c12`, the GI50 is 2.4 µM in assay [1]; 4.08 µM in [2]; 6.86 µM in assay [3]; 4 µM in assay [4]; 0.611 µM in assay [10]; 0.836 µM in [6]. The GI50 in [7] is 5.46 µM; in assay [8], 0.918 µM; in [9], 0.891 µM. Besides, the TGI in assay [1] was over 100 µM; in assay [2] it was over 100 µM; in assay [3] it was over 100 µM; in assay [4], over 100 µM; in [10], over 100 µM; in [6], 37.7 µM. The TGI in assay [7], in assay [8] and in assay [9] was over 100 µM throughout.

As to `COc1cc2c(c3c1c(=O)c1ccccc1n3C)C=C([N+](=O)[O-])C(C)(C)O2`, the TGI was 0.464 µM in assay [1]; over 100 µM in assay [3]; over 100 µM in assay [4]; over 34.4 µM in [10]; 0.328 µM in assay [5]; 0.0567 µM in assay [6]. Moreover, the TGI in assay [7], in assay [8] and in assay [9] was over 100 µM each time.

As for `CCOC1c2nc3ccccc3nc2-c2ccccc2N1C(C)=O` (stereo unspecified), the TGI in assay [1], in assay [2], in assay [4], in assay [5], in assay [7] and in [8] was over 100 µM throughout. For the same molecule, in assay [9], the TGI was over 100 µM.

In the case of `Cc1ccccc1Nc1cc(O)c2c(=O)cc(-c3ccccc3)oc2c1`, the GI50 in assay [1] was 4.25 µM; in assay [3] it was 4.11 µM; in assay [4] it was 4.75 µM; in [10] it was 1.79 µM; in [5], 2.45 µM; in assay [7], 4.05 µM. For the same molecule, the GI50 in assay [8] was 2.89 µM. Further, the TGI in [1] was over 100 µM; in assay [3], over 100 µM; in assay [4] it was over 100 µM; in assay [10], over 100 µM; in assay [5], 9.56 µM; in [7], over 100 µM. Besides, the TGI in assay [8] was over 100 µM.

Regarding `O=C1c2cccc3c(N4CCOCC4)ccc(c23)C(=O)N1CCN1CCN(CCCCCN2CCN(CCN3C(=O)c4cccc5c(N6CCOCC6)ccc(c45)C3=O)CC2)CC1`, the GI50 in [1] is 62.2 µM; in assay [2] it was 17.5 µM; in [3], 87.3 µM; in assay [4] it was 99.8 µM; in [5], 59.8 µM; in [6], 57.2 µM. Besides, the values for the GI50 in assay [7] and in assay [8] were 57.4 µM and 77.6 µM, respectively. In addition, the TGI is over 100 µM in [1]; 65.5 µM in assay [2]; over 100 µM in assay [3]; over 100 µM in assay [4]; over 100 µM in assay [5]; over 100 µM in [6]. Further, the TGI in assay [7] and in assay [8] was over 100 µM throughout.

As for `C[n+]1cn(CC(=O)c2ccccc2)c(C(N)=O)c1N`, the TGI in assay [1], in assay [2], in assay [3], in [4], in assay [10] and in assay [6] was over 100 µM throughout. Further, the TGI in [7], in [8] and in assay [9] was over 100 µM throughout.

Regarding `Oc1cn(-c2ccc(Cl)cc2)nc1-c1n[nH]c(=S)n1-c1ccc(F)cc1`, the GI50 in [1] is 28.8 µM; in assay [3] it was 26.6 µM; in assay [4] it was 15.7 µM; in [10] it was 18 µM; in assay [5], 28 µM; in assay [6] it was 14.3 µM. The GI50 in [7] is 16.9 µM; in assay [8], 12 µM; in assay [9], 25 µM. The TGI in [1] is over 100 µM; in assay [3] it was 90.2 µM; in assay [4], 33 µM; in [10], 64.8 µM; in assay [5], over 100 µM; in assay [6], 35.9 µM. The figures for the TGI in assay [7], in [8] and in [9] were 50.3 µM, 28 µM and over 100 µM, respectively.

Take `COc1ccc(/C=C/C(=O)c2c(-c3ccccc3)nn(C)c(=O)c2N2CCCCC2)cc1`: the TGI is over 100 µM in [1]; 50.7 µM in [4]; 27.3 µM in assay [10]; 28 µM in assay [5]; 29.1 µM in assay [6]; 64.2 µM in assay [7]. Also, the TGI was 44.8 µM in [8] and 34.7 µM in assay [9].

Consider `CN1CCCc2nc3ccccc3n2C1`, for which the TGI in [1], in [3], in [4], in [10], in assay [5] and in assay [6] was over 100 µM in each case. Further, the TGI in assay [7], in assay [8] and in [9] was over 100 µM in each case.

Take `CCOC(=O)c1cn(C)c2c(OC)c3ccccc3c(OC)c2c1=O`: the GI50 in assay [1] was 46.8 µM; in [3], 23.8 µM; in assay [4] it was 16.1 µM; in assay [10] it was over 100 µM; in assay [7] it was 28.1 µM; in [8], 19.5 µM. Besides, the GI50 in assay [9] was over 100 µM. Also, the TGI is over 100 µM in [1]; 57.1 µM in assay [3]; 37.8 µM in assay [4]; over 100 µM in [10]; 86.9 µM in [7]; 36.4 µM in assay [8]. Also, the TGI in assay [9] is over 100 µM.
